Source: patent publication US10815230B2, “Casein kinase 1 delta inhibitor” (ELECTROPHORETICS LIMITED, priority 2015, dated 2020)

Tests used:
Experiment in all cases: KINOMEscan binding assay
Conditions in all cases: read-out: % Ctrl @ 10000 nM
[1] = target: ABL1 (F317I) phosphorylated (Homo sapiens, UniProt P00519, F317I)
ALK (C1156Y) = ALK (C1156Y) (Homo sapiens, UniProt Q9UM73, C1156Y)
ASK1 = ASK1 (Homo sapiens, UniProt Q99683)
BMPR2 = BMPR2 (Homo sapiens, UniProt Q13873)
BRAF = BRAF (Homo sapiens, UniProt P15056)
Sequence of BRAF (P15056 whole entry): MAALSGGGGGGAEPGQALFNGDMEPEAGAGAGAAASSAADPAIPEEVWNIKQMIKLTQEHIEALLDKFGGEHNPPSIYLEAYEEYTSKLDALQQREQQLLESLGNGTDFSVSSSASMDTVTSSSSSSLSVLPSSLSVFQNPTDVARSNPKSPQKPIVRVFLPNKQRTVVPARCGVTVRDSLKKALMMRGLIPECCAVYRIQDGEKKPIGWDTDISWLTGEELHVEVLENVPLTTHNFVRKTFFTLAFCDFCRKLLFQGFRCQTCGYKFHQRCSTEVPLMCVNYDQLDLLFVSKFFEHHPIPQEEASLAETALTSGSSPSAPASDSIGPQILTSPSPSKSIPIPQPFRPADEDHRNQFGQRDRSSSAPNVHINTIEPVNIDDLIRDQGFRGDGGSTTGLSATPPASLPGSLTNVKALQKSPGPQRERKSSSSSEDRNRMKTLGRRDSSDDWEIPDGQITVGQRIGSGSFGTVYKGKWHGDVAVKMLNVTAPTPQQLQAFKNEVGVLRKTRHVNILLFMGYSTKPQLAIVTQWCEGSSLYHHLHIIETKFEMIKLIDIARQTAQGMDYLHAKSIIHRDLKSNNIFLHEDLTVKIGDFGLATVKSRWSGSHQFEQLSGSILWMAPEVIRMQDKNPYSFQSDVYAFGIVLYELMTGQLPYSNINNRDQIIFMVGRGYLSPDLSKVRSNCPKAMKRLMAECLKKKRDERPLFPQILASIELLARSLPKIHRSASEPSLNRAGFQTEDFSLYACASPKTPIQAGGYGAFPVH

BRSK1 = BRSK1 (Homo sapiens, UniProt Q8TDC3)
CAMK2G = CAMK2G (Homo sapiens, UniProt Q13555)
CDC2L2 = CDC2L2 (Homo sapiens, UniProt Q9UQ88)
CDK5 = CDK5 (Homo sapiens, UniProt Q00535)
CDKL2 = CDKL2 (Homo sapiens, UniProt Q92772)
CSNK2A1 = CSNK2A1 (Homo sapiens, UniProt P68400)
DYRK1B = DYRK1B (Homo sapiens, UniProt Q9Y463)
EIF2AK1 = EIF2AK1 (Homo sapiens, UniProt Q9BQI3)
EPHA3 = EPHA3 (Homo sapiens, UniProt P29320)
EPHA7 = EPHA7 (Homo sapiens, UniProt Q15375)
ERBB4 = ERBB4 (Homo sapiens, UniProt Q15303)
ERK3 = ERK3 (Homo sapiens, UniProt Q16659)
ERN1 = ERN1 (Homo sapiens, UniProt O75460)
FGFR3 = FGFR3 (Homo sapiens, UniProt P22607)
FLT3 (D835Y) = FLT3 (D835Y) (Homo sapiens, UniProt P36888, D835Y)
FLT3-autoinhibited = FLT3-autoinhibited (Homo sapiens, UniProt P36888)
HCK = HCK (Homo sapiens, UniProt P08631)
[2] = target: JAK1 (JH1domain-catalytic) (Homo sapiens, UniProt P23458)
Sequence of JAK1 (JH1domain-catalytic) (P23458 875-1153 limits assumed): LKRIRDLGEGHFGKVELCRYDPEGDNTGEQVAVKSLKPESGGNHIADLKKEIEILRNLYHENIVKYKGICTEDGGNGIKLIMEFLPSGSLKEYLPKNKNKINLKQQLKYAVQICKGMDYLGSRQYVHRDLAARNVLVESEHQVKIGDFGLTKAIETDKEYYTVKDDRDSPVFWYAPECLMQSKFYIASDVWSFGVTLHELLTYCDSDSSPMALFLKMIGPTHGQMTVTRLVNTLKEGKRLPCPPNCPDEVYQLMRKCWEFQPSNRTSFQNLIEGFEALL

MAST1 = MAST1 (Homo sapiens, UniProt Q9Y2H9)
MEK6 = MEK6 (Homo sapiens, UniProt P52564)
Sequence of MEK6 (P52564 whole entry): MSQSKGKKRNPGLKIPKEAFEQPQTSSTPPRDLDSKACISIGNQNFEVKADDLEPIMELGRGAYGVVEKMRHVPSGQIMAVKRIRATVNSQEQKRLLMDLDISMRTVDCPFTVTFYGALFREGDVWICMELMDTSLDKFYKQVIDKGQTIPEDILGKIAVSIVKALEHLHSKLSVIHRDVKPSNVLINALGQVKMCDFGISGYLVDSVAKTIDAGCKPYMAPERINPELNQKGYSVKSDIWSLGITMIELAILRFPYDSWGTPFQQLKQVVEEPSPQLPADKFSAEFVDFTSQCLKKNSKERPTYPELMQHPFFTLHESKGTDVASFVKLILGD

MLCK = MLCK (Homo sapiens, UniProt Q32MK0)
MST2 = MST2 (Homo sapiens, UniProt Q13188)
Sequence of MST2 (Q13188 whole entry): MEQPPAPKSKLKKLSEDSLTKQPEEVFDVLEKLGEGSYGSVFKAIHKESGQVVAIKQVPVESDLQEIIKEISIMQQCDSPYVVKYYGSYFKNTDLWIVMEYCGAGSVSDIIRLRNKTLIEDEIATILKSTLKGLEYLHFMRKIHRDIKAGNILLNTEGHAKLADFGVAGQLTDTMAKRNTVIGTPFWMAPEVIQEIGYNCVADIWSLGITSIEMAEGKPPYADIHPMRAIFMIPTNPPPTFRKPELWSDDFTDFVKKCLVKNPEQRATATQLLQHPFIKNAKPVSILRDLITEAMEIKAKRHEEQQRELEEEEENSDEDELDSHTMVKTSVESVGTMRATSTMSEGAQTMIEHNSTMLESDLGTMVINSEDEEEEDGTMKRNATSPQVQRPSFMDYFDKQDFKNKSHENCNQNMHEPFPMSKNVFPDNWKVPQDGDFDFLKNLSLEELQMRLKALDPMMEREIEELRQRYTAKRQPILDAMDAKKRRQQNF

NDR2 = NDR2 (Homo sapiens, UniProt Q9Y2H1)
Sequence of NDR2 (Q9Y2H1 whole entry): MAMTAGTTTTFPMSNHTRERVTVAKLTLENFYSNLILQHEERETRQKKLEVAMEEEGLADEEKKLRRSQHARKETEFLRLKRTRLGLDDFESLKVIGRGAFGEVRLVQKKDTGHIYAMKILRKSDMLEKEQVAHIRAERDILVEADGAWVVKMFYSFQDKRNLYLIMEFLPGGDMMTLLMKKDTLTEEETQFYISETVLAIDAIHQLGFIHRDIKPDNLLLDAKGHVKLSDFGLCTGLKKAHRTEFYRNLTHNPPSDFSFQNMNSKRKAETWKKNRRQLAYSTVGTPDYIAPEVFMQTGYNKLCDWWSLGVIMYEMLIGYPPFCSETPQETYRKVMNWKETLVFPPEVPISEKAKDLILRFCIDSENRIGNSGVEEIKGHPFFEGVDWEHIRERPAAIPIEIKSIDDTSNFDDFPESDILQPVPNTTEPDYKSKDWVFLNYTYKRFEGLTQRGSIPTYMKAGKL

p38-beta = p38-beta (Homo sapiens, UniProt Q15759)
Sequence of p38-beta (Q15759 whole entry): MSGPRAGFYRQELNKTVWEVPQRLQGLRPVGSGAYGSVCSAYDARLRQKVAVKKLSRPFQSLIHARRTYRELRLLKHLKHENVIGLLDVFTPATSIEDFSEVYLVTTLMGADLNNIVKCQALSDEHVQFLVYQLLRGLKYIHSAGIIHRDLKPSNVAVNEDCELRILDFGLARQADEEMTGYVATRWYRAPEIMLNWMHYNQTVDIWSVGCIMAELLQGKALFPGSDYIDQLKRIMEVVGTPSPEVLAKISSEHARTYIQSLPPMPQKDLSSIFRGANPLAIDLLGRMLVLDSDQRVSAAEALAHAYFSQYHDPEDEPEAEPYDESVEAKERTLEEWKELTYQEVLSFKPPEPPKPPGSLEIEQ

PIK3CA (E545A) = PIK3CA (E545A) (Homo sapiens, UniProt P42336, E545A)
PIP5K2C = PIP5K2C (Homo sapiens, UniProt Q8TBX8)
PRP4 = PRP4 (Homo sapiens, UniProt Q13523)
RIPK5 = RIPK5 (Homo sapiens, UniProt Q6XUX3)
[3] = target: RPS6KA4 Kin.Dom.1-N-terminal (Homo sapiens, UniProt O75676)
[4] = target: RPS6KA5 Kin.Dom.2-C-terminal (Homo sapiens, UniProt O75582)
TEC = TEC (Homo sapiens, UniProt P42680)
TYK2 JH1domain-catalytic = TYK2 JH1domain-catalytic (Homo sapiens, UniProt P29597)
Sequence of TYK2 JH1domain-catalytic (P29597 897-1176 limits assumed): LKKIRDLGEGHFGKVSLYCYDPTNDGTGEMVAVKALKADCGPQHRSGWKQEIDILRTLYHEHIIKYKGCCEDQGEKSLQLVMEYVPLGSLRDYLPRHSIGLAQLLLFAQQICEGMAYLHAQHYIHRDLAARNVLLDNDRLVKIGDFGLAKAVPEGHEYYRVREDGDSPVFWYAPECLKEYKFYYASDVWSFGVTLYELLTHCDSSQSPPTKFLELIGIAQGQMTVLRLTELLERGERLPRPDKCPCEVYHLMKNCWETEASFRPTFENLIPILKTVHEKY

ULK1 = target: T1, ULK1 (Homo sapiens, UniProt O75385)
T1 construct: purchased DiscoveRx (KINOMEscan, LeadHunter Discovery services)

WNK1 = target: T2, WNK1 (Homo sapiens, UniProt Q9H4A3)
T2 construct: purchased DiscoveRx (KINOMEscan, LeadHunter Discovery services)

YANK1 = target: T3, YANK1 (Homo sapiens, UniProt Q8WU08)
T3 construct: purchased DiscoveRx (KINOMEscan, LeadHunter Discovery services)
T3 sequence (Q8WU08 whole entry): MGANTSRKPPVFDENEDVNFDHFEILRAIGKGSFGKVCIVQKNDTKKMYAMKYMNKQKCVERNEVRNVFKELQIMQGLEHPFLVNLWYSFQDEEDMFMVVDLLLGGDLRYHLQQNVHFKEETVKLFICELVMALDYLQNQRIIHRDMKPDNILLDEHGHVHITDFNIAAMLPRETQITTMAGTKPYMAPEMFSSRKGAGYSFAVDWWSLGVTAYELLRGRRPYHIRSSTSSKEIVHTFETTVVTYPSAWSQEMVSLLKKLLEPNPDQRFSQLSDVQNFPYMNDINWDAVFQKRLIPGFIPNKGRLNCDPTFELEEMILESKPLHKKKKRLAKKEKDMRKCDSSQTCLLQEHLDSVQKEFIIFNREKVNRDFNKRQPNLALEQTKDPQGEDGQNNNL

YES = YES (Homo sapiens, UniProt P07947)
ZAK = target: T4, ZAK (Homo sapiens, UniProt Q9NYL2)
T4 construct: purchased DiscoveRx (KINOMEscan, LeadHunter Discovery services)

Sequence of ALK (C1156Y) (Q9UM73 19-1620 C1156Y): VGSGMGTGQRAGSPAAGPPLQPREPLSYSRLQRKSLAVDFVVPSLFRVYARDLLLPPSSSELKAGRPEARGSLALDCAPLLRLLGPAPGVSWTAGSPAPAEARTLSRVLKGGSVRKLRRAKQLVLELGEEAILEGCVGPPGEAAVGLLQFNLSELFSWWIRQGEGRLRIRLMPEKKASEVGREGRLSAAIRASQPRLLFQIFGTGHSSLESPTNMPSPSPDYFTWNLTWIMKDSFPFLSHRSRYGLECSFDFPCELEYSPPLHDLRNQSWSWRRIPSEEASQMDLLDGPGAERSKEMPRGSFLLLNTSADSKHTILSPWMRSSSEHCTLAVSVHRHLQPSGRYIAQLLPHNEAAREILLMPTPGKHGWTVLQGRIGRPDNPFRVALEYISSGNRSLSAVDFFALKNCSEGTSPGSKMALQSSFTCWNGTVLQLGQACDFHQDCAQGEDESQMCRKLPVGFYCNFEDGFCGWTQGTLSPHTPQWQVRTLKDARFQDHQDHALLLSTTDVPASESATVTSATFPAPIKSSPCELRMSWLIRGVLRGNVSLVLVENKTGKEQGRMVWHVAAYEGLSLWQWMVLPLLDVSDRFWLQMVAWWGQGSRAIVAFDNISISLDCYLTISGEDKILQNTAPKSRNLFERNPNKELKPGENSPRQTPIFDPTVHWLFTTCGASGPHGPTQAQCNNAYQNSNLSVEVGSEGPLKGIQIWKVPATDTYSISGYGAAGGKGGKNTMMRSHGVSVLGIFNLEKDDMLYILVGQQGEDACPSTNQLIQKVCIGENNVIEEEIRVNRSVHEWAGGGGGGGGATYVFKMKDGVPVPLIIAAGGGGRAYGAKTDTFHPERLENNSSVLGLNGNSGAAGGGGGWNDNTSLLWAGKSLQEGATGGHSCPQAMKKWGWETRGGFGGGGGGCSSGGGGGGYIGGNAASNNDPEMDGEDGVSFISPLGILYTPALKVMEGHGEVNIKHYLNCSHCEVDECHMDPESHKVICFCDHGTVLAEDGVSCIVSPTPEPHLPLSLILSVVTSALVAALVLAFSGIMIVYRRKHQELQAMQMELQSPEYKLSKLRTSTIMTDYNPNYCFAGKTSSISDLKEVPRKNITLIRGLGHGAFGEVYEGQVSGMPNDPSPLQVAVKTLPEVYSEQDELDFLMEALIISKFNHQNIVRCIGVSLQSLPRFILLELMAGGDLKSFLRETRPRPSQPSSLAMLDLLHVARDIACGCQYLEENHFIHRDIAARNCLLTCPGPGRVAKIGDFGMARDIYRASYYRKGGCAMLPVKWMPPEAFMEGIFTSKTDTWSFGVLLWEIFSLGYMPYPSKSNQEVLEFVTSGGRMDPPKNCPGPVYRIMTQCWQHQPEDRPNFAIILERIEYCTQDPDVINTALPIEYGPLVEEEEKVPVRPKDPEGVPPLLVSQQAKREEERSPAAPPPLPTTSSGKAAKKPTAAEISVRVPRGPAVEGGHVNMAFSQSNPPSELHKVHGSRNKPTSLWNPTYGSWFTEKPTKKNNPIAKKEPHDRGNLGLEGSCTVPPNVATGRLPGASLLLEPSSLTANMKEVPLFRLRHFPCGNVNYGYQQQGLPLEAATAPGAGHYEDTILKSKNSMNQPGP

## Nc1ncc(-c2nc3ccccc3o2)c(-c2ccncc2)n1 [Comparative Compound 324, 5-(1,3-benzoxazol-2-yl)-4-(pyridine-4-yl)pyrimidin-2-amine]
[1]
  remaining binding at 10 µM: 100%
ALK (C1156Y)
  remaining binding at 10 µM: 100%
ASK1
  remaining binding at 10 µM: 96%
BMPR2
  remaining binding at 10 µM: 100%
BRAF
  remaining binding at 10 µM: 77%
BRSK1
  remaining binding at 10 µM: 98%
CAMK2G
  remaining binding at 10 µM: 100%
CDC2L2
  remaining binding at 10 µM: 100%
CDK5
  remaining binding at 10 µM: 100%
CDKL2
  remaining binding at 10 µM: 100%
CSNK2A1
  remaining binding at 10 µM: 56%
DYRK1B
  remaining binding at 10 µM: 97%
EIF2AK1
  remaining binding at 10 µM: 83%
EPHA3
  remaining binding at 10 µM: 86%
EPHA7
  remaining binding at 10 µM: 87%
ERBB4
  remaining binding at 10 µM: 100%
ERK3
  remaining binding at 10 µM: 100%
ERN1
  remaining binding at 10 µM: 88%
FGFR3
  remaining binding at 10 µM: 95%
FLT3 (D835Y)
  remaining binding at 10 µM: 90%
FLT3-autoinhibited
  remaining binding at 10 µM: 95%
HCK
  remaining binding at 10 µM: 100%
[2]
  remaining binding at 10 µM: 88%
MAST1
  remaining binding at 10 µM: 86%
MEK6
  remaining binding at 10 µM: 98%
MLCK
  remaining binding at 10 µM: 94%
MST2
  remaining binding at 10 µM: 94%
NDR2
  remaining binding at 10 µM: 96%
p38-beta
  remaining binding at 10 µM: 100%
PIK3CA (E545A)
  remaining binding at 10 µM: 76%
PIP5K2C
  remaining binding at 10 µM: 72%
PRP4
  remaining binding at 10 µM: 70%
RIPK5
  remaining binding at 10 µM: 96%
[3]
  remaining binding at 10 µM: 100%
[4]
  remaining binding at 10 µM: 96%
TEC
  remaining binding at 10 µM: 94%
TYK2 JH1domain-catalytic
  remaining binding at 10 µM: 86%
ULK1
  remaining binding at 10 µM: 93%
WNK1
  remaining binding at 10 µM: 81%
YANK1
  remaining binding at 10 µM: 66%
YES
  remaining binding at 10 µM: 100%
ZAK
  remaining binding at 10 µM: 79%

## CNc1c(C(N)=O)c2ccccn2c1C(=O)c1ccc(F)cc1 [Compound A, 2-methyl-amino-3-[(4-fluorophenyl)carbonyl]indolizine-1-carboxamide]
[1]
  remaining binding at 10 µM: 88%
ALK (C1156Y)
  remaining binding at 10 µM: 98%
ASK1
  remaining binding at 10 µM: 87%
BMPR2
  remaining binding at 10 µM: 88%
BRAF
  remaining binding at 10 µM: 93%
BRSK1
  remaining binding at 10 µM: 100%
CAMK2G
  remaining binding at 10 µM: 87%
CDC2L2
  remaining binding at 10 µM: 91%
CDK5
  remaining binding at 10 µM: 81%
CDKL2
  remaining binding at 10 µM: 85%
CSNK2A1
  remaining binding at 10 µM: 53%
DYRK1B
  remaining binding at 10 µM: 89%
EIF2AK1
  remaining binding at 10 µM: 86%
EPHA3
  remaining binding at 10 µM: 68%
EPHA7
  remaining binding at 10 µM: 82%
ERBB4
  remaining binding at 10 µM: 64%
ERK3
  remaining binding at 10 µM: 88%
ERN1
  remaining binding at 10 µM: 84%
FGFR3
  remaining binding at 10 µM: 90%
FLT3 (D835Y)
  remaining binding at 10 µM: 94%
FLT3-autoinhibited
  remaining binding at 10 µM: 87%
HCK
  remaining binding at 10 µM: 65%
[2]
  remaining binding at 10 µM: 73%
MAST1
  remaining binding at 10 µM: 75%
MEK6
  remaining binding at 10 µM: 73%
MLCK
  remaining binding at 10 µM: 53%
MST2
  remaining binding at 10 µM: 89%
NDR2
  remaining binding at 10 µM: 85%
p38-beta
  remaining binding at 10 µM: 100%
PIK3CA (E545A)
  remaining binding at 10 µM: 73%
PIP5K2C
  remaining binding at 10 µM: 79%
PRP4
  remaining binding at 10 µM: 90%
RIPK5
  remaining binding at 10 µM: 79%
[3]
  remaining binding at 10 µM: 100%
[4]
  remaining binding at 10 µM: 88%
TEC
  remaining binding at 10 µM: 88%
TYK2 JH1domain-catalytic
  remaining binding at 10 µM: 71%
ULK1
  remaining binding at 10 µM: 86%
WNK1
  remaining binding at 10 µM: 69%
YANK1
  remaining binding at 10 µM: 81%
YES
  remaining binding at 10 µM: 78%
ZAK
  remaining binding at 10 µM: 92%
